Laboratory results: patent US8324190B2, “Treatment of proliferative disorders with amino-substituted (E)-2,6- dialkoxystyryl 4-substituted benzylsulfones” (Temple University—Of The Commonwealth System of Higher …, priority 2002, dated 2012)

Experiments:
Assay in all cases: Tumor cell viability assay, Trypan blue exclusion
Format in all cases: cell-based
Conditions in all cases: cell viability after 96 hours
[1] = system: breast adenocarcinoma cell line BT-20
Protocol: (§1) BT-20 is an estrogen-unresponsive cell line. NIH/3T3 and HFL are normal murine and human fibroblasts, respectively. BT-20, DLD-1 and H157 were grown in Dulbecco's modified Eagle's medium (DMEM) containing 10% fetal bovine serum supplemented with penicillin and streptomycin. DU145 was cultured in RPMI with 10% fetal bovine serum containing penicillin and streptomycin. NIH3T3 and HFL cells were grown in DMEM containing 10% calf serum supplemented with penicillin and streptomycin. Cells were plated at density levels of 1.0×10^5 cells per well in six-well plates. Cell cultures were maintained at 37° C. in a humidified atmosphere of 5% CO2. Cells were treated with compounds of the invention at various concentrations. Cell viability was determined after 96 hours by the Trypan blue exclusion method. […] The number of viable cells remaining after 96 hours of treatment was determined using hemacytometer following trypan blue staining. The number of viable cells has been plotted as the percent of Vehicle treated (control) cells.

[2] = system: colorectal carcinoma cell line DLD-1
Protocol: as §1

[3] = system: non-small cell lung carcinoma cell line H157
Protocol: as §1

[4] = system: prostate carcinoma cell line DU-145
Protocol: as §1

Measured: IC50

COc1cc(OC)c(/C=C/S(=O)(=O)Cc2ccc(OC)c(NC(=O)c3ccc(N4CCN(C)CC4)cc3)c2)c(OC)c1 [Example 23, (E)-2,4,6-trimethoxystyryl-3-[4-(4-methylpiperazin-1-yl)-benzamido]-4-methoxybenzylsulfone]
< 10 µM: all assays above

COc1cc(OC)c(/C=C/S(=O)(=O)Cc2ccc(OC)c(NC(=O)CCCC(=O)O)c2)c(OC)c1 [Example 37, (E)-2,4,6-trimethoxystyryl-3-(glutaramido)-4-methoxybenzyl-sulfone]
< 10 µM: all assays above

COc1cc(OC)c(/C=C/S(=O)(=O)Cc2ccc(OC)c(NC(=O)C(F)(F)C(F)(F)F)c2)c(OC)c1 [Example 46, (E)-2,4,6-trimethoxystyryl-3-(pentafluoropropionamido)-4-methoxybenzylsulfone]
< 10 µM: all assays above

COc1cc(OC)c(/C=C/S(=O)(=O)Cc2ccc(OC)c(NC(C)=O)c2)c(OC)c1 [Example 18, (E)-2,4,6-Trimethoxystyryl-3-(acetamido)-4-methoxybenzyl-sulfone]
< 10 µM: all assays above

COc1cc(OC)c(/C=C/S(=O)(=O)Cc2ccc(OC)c(NCCC(=O)O)c2)c(OC)c1 [Example 40, (E)-2,4,6-trimethoxystyryl-3-(2-carboxyethylamino)-4-methoxy-benzylsulfone]
< 10 µM: all assays above

COc1cc(OC)c(/C=C/S(=O)(=O)Cc2ccc(OC)c(NC(=O)c3ccc([N+](=O)[O-])cc3)c2)c(OC)c1 [Example 10, (E)-2,4,6-Trimethoxystyryl-3-(4-nitrobenzamido)-4-methoxy-benzylsulfone]
< 10 µM: all assays above

COc1cc(OC)c(/C=C/S(=O)(=O)Cc2ccc(OC)c(NS(=O)(=O)c3ccc([N+](=O)[O-])cc3[N+](=O)[O-])c2)c(OC)c1 [Example 19, (E)-2,4,6-Trimethoxystyryl-3-(2,4-dinitrobenzenesulfamyl)-4-methoxybenzylsulfone]
< 10 µM: all assays above

COc1cc(OC)c(/C=C/S(=O)(=O)Cc2ccc(OC)c(NC(=O)CO)c2)c(OC)c1 [Example 24, (E)-2,4,6-trimethoxystyryl-3-(hydroxyacetamido)-4-methoxy-benzylsulfone]
< 10 µM: all assays above

COc1cc(OC)c(/C=C/S(=O)(=O)Cc2ccc(OC)c(NC(C)C(=O)O)c2)c(OC)c1 (stereo not drawn) [Example 22, (E)-2,4,6-trimethoxystyryl-3-[(1-carboxyethyl)amino]-4-methoxybenzylsulfone]
< 10 µM: all assays above

COc1cc(OC)c(/C=C/S(=O)(=O)Cc2ccc(OC)c(NC(=O)C(C)OC(C)=O)c2)c(OC)c1 (stereo not drawn) [Example 43, (E)-2,4,6-trimethoxystyryl-3-(2-acetoxypropionamido)-4-methoxybenzylsulfone]
< 10 µM: all assays above

CNc1cc(CS(=O)(=O)/C=C/c2c(OC)cc(OC)cc2OC)ccc1OC [Example 17, (E)-2,4,6-Trimethoxystyryl-3-(N-methylamino)-4-methoxybenzyl-sulfone]
< 10 µM: all assays above

COc1cc(OC)c(/C=C/S(=O)(=O)Cc2ccc(OC)c(NC(=O)CC(Cl)C(=O)O)c2)c(OC)c1 (stereo not drawn) [Example 35, (E)-2,4,6-trimethoxystyryl-3-(3-chlorosuccinamido)-4-methoxy-benzylsulfone]
< 10 µM: all assays above
